From patent publication US5310757A, “3,3,5-trimethylcyclohexyl 2-methylpropionate derivatives, their method of preparation and therapeutic compositions in which they are present” (Panmedica, priority 1989, dated 1994) come the findings set out here.

For assay [1], the system named is hyperlipidaemia caused by TRITON 1339. The assay is described as follows: test for the hyperlipidaemia caused by TRITON 1339. In kind it is in vivo. As to conditions: rats, Triton test after oral administration for six days, 0.5 millimol per kilogram; for HDL cholesterol: Control 0.7 ± 0.1, Triton 0.8 ± 0.1; for Triglycerides: Control 1 ± 0.3, Triton 10 ± 7; for Total cholesterol: Control 2 ± 0.15, Triton 9 ± 3; for Total lipids: Control 3.5 ± 0.4, Triton 20 ± 10. On the procedure:
The Table below summarizes the results of the pharmacological studies carried out especially by means of the test for the hyperlipidaemia caused by TRITON 1339. The experimental protocol was that published by J. C. […] et al. (Gaz. Med. France, 3rd inter. coll. 1982, Dijon, 18-22). The tests are performed on groups of 7 rats weighing from 280 to 290 g. The Triton test is carried out after oral administration for six days at a rate of 0.5 millimol per kilogram of body weight. The following lipid parameters are measured: total cholesterol, triglycerides, total lipids and HDL cholesterol.

The subject of assay [2] is HMG-CoA red. The assay is described as follows: HMG-CoA red. activity "ex vivo" in liver microsomes after chronic intraperitoneal administration to rats. Also on record: Mevalonate formed: unit not given here. As to conditions: 50 mg/kg for 6 days; for Mevalonate formed: Control 17; for % inhibition: inhibition of HMG-CoA red. activity, Control 0. On the procedure:
The inhibitory activity of the products according to the present invention was determined by the method of Kuroda et al. (Biochemica et Biophysica Acta, vol. 486, pp. 70-81 (1977)), which is a modification of the method of Shapiro et al. (Analytical Biochemistry, vol. 31, pp. 383-390 (1969)). […] The doses administered were 50 mg/kg for 6 days; six rats were used in each series; they are sacrificed without anaesthesia and the liver microsomes are isolated for the assay, which is performed according to the above-mentioned protocol.
(In general: Liver microsomes are vesicles of endoplasmic reticulum, rich in cytochrome P450 enzymes.)

The target of assay [3] is T1, 3-hydroxy-3-methylglutaryl-CoA reductase (Rattus norvegicus, UniProt P51639).
T1 construct: from tissue
T1 sequence (P51639 1-887): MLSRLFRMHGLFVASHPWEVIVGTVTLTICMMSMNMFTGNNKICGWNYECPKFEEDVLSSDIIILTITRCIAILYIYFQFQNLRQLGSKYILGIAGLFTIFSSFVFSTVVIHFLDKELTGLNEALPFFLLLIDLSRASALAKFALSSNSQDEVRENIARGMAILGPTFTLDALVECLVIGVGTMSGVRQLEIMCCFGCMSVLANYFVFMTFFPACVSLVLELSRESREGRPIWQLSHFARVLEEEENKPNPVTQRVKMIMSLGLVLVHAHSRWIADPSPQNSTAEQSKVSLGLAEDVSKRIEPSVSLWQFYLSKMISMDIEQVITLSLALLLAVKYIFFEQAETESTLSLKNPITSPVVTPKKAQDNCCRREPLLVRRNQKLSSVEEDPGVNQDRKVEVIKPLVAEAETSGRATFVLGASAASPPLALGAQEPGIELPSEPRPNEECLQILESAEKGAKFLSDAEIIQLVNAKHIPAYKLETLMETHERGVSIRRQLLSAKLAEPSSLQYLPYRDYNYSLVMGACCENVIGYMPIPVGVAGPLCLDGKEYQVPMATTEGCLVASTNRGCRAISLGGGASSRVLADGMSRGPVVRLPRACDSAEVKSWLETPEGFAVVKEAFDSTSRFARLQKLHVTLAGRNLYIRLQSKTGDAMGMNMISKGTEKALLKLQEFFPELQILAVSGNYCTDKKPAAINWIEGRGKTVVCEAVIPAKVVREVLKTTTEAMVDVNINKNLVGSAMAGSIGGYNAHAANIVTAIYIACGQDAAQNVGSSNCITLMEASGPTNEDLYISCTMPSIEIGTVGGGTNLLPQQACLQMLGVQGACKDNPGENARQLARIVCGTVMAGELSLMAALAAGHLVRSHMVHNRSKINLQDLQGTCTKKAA
The assay can be described thus: inhibition of 3-hydroxy-3-methylglutaryl-CoA reductase activity (method of Kuroda et al.). In kind it is biochemical. The following applies: concentration for 50% inhibition of 3-hydroxy-3-methylglutaryl-CoA reductase activity. As to the method:
The biosynthesis of cholesterol in an isolated enzymatic system or in a cell culture from organs removed from experimental animals is inhibited by limiting the activity of the enzyme 3-hydroxy-3-methylglutaryl-CoA reductase.
The inhibitory activity of the products according to the present invention was determined by the method of Kuroda et al. (Biochemica et Biophysica Acta, vol. 486, pp. 70-81 (1977)), which is a modification of the method of Shapiro et al. (Analytical Biochemistry, vol. 31, pp. 383-390 (1969)). The results are summarized in Table II, where IC50 is the concentration of product in the experimental medium which is necessary to achieve a 50% inhibition of the 3-hydroxy-3-methylglutaryl-CoA reductase activity, expressed in nanomol.

The % inhibition is the percentage by which the read-out fell short of the control. As a reminder, the IC50 is the point on the concentration scale where inhibition reaches its midpoint.

`C[C@H]1C[C@H](OC(=O)C(C)(C)Oc2ccc(C(=O)c3ccc(Cl)cc3)cc2)CC(C)(C)C1` (relative stereo) [Example 1, (TRANS) 3,3,5-TRIMETHYLCYCLOHEXYL 2-(4-(4-CHLOROBENZOYL)PHENOXY)-2-METHYLPROPIONATE]: in assay [1], the HDL cholesterol amounted to 1.5 ± 0.4 mmol/L, the Triglycerides turned out to be 0.8 ± 0.1 mmol/L, the Total cholesterol was found to be 3.5 ± 1.4 mmol/L and the Total lipids was 3.6 ± 0.5 g/L. In assay [2], the Mevalonate formed was found to be 4.44 and the “% inhibition” value was 74%.
With `Cc1ccc(C)c(OCCCC(C)(C)C(=O)O[C@H]2C[C@H](C)CC(C)(C)C2)c1` (relative stereo) [Example 6, (TRANS) 3,3,5-TRIMETHYLCYCLOHEXYL 2-(3-(2,5-DIMETHYLPHENOXY)PROPYL)-2-METHYLPROPIONATE], in assay [1], the HDL cholesterol was 0.9 ± 0.3 mmol/L, the Triglycerides was 1.7 ± 0.3 mmol/L, the Total cholesterol turned out to be 2.0 ± 0.2 mmol/L and the Total lipids turned out to be 8.0 ± 3 g/L. Also, in assay [2], the Mevalonate formed came to 6.01 and the “% inhibition” value came to 65%.
In assay [1], `C[C@@H]1C[C@H](OC(=O)C(C)(C)Oc2ccc(-c3ccccc3)cc2)CC(C)(C)C1` (relative stereo) [Example 8, (CIS) 3,3,5-TRIMETHYLCYCLOHEXYL 2-(4-PHENYLPHENOXY)-2-METHYLPROPIONATE] showed an HDL cholesterol of 1.1 ± 0.2 mmol/L, a Triglycerides of 6.0 ± 4 mmol/L, a Total cholesterol of 3.0 ± 0.2 mmol/L and a Total lipids of 3.6 ± 0.2 g/L.
For `CCC(=O)c1ccc(OC(C)(C)C(=O)O[C@H]2C[C@H](C)CC(C)(C)C2)cc1` (relative stereo) [Example 9, (TRANS) 3,3,5-TRIMETHYLCYCLOHEXYL 2-(4-PROPIONYLPHENOXY)-2-METHYLPROPIONATE], in that order: 2.0 ± 0.6 mmol/L, 1.6 ± 0.3 mmol/L, 2.5 ± 0.6 mmol/L and 5.0 ± 0.2 g/L.
`CCC(=O)c1ccc(OC(C)(C)C(=O)O[C@H]2C[C@@H](C)CC(C)(C)C2)cc1` (relative stereo) [Example 10, (CIS) 3,3,5-TRIMETHYLCYCLOHEXYL 2-(4-PROPIONYLPHENOXY)-2-METHYLPROPIONATE] returned an IC50 in assay [3] of 0.0376 µM.
In the case of `CC(=O)c1ccc(OC(C)(C)C(=O)O[C@H]2C[C@H](C)CC(C)(C)C2)c(Cl)c1` (relative stereo) [Example 11, (TRANS) 3,3,5-TRIMETHYLCYCLOHEXYL 2-(4-ACETYL-2-CHLOROPHENOXY)-2-METHYLPROPIONATE], in assay [1], the HDL cholesterol came to 1.0 ± 0.1 mmol/L, the Triglycerides was 1.0 ± 0.1 mmol/L, the Total cholesterol stood at 1.8 ± 0.4 mmol/L and the Total lipids was 11 ± 5 g/L.
For the compound `CC(=O)c1ccc(OC(C)(C)C(=O)O[C@H]2C[C@@H](C)CC(C)(C)C2)c(Cl)c1` (relative stereo) [Example 12, (CIS) 3,3,5-TRIMETHYLCYCLOHEXYL 2-(4-ACETYL-2-CHLOROPHENOXY)-2-METHYLPROPIONATE], the IC50 in assay [3] is 0.0219 µM.
The same measure, in the same setting: then `CC(=O)c1cccc(OC(C)(C)C(=O)O[C@H]2C[C@H](C)CC(C)(C)C2)c1` (relative stereo) [Example 13, (TRANS) 3,3,5-TRIMETHYLCYCLOHEXYL 2-(3-ACETYLPHENOXY)-2-METHYLPROPIONATE], with 0.0357 µM.
Turning to `CC(=O)c1cccc(OC(C)(C)C(=O)O[C@H]2C[C@@H](C)CC(C)(C)C2)c1` (relative stereo) [Example 14, (CIS) 3,3,5-TRIMETHYLCYCLOHEXYL 2-(3-ACETYLPHENOXY)-2-METHYLPROPIONATE], in assay [1], the HDL cholesterol amounted to 2.1 ± 0.1 mmol/L, the Triglycerides was determined as 6.0 ± 3.0 mmol/L, the Total cholesterol turned out to be 3.0 ± 0.3 mmol/L and the Total lipids came to 4.8 ± 0.6 g/L.
In assay [1], `CC(=O)c1ccc(OC(C)(C)C(=O)O[C@@H]2C[C@@H](C)CC(C)(C)C2)cc1` (relative stereo) [Example 15, (TRAMS) 3,3,5-TRIMETHYLCYCLOHEXYL 2-(4-ACETYLPHENOXY)-2-METHYLPROPIONATE] yielded an HDL cholesterol of 1.7 ± 0.1 mmol/L, a Triglycerides of 1.7 ± 1.2 mmol/L, a Total cholesterol of 2.8 ± 0.2 mmol/L and a Total lipids of 3.0 ± 0.3 g/L.
In assay [3], `CC(=O)c1ccc(OC(C)(C)C(=O)O[C@H]2C[C@@H](C)CC(C)(C)C2)cc1` (relative stereo) [Example 16, (CIS) 3,3,5-TRIMETHYLCYCLOHEXYL 2-(4-ACETYLPHENOXY)-2-METHYLPROPIONATE] yielded an IC50 of 0.0459 µM.
For the compound `C[C@H]1C[C@H](OC(=O)C(C)(C)Oc2ccc(C(=O)Cc3ccccc3)cc2)CC(C)(C)C1` (relative stereo) [Example 17, (TRANS) 3,3,5-TRIMETHYLCYCLOHEXYL 2-(4-PHENYLACETYLPHENOXY)-2-METHYLPROPIONATE], in assay [2], the Mevalonate formed amounted to 8.66 and the “% inhibition” value is 50%.
In turn, `C[C@@H]1C[C@H](OC(=O)C(C)(C)Oc2ccc(C(=O)Cc3ccccc3)cc2)CC(C)(C)C1` (relative stereo) [Example 18, (CIS) 3,3,5-TRIMETHYLCYCLOHEXYL 2-(4-PHENYLACETYLPHENOXY)-2-METHYLPROPIONATE] gave an IC50 in assay [3] of 0.0329 µM.
Take `C[C@H]1C[C@H](OC(=O)C(C)(C)CCCCOc2ccccc2)CC(C)(C)C1` (relative stereo) [Example 19, (TRANS) 3,3,5-TRIMETHYLCYCLOHEXYL 2-(4-PHENOXYBUTYL)- 2-METHYLPROPIONATE]: in assay [2], the Mevalonate formed was determined as 5.2 and the “% inhibition” value came to 70%.
`C[C@@H]1C[C@H](OC(=O)C(C)(C)CCCCOc2ccccc2)CC(C)(C)C1` (relative stereo) [Example 20, (CIS) 3,3,5-TRIMETHYLCYCLOHEXYL 2-(4-PHENOXYBUTYL)-2-METHYLPROPIONATE]: in assay [3], the IC50 was found to be 0.0405 µM.
As to `Cc1ccc(OCCCCC(C)(C)C(=O)O[C@H]2C[C@@H](C)CC(C)(C)C2)c(C)c1` (relative stereo) [Example 21, (CIS) 3,3,5-TRIMETHYLCYCLOHEXYL 2-(4-(2,4-DIMETHYLPHENOXY)BUTYL)-2-METHYLPROPIONATE], in assay [2], the Mevalonate formed is on record as 3.8 and the “% inhibition” value stood at 78%.
Take `Cc1cc(C)cc(OCCCCC(C)(C)C(=O)O[C@H]2C[C@@H](C)CC(C)(C)C2)c1` (relative stereo) [Example 22, (CIS) 3,3,5-TRIMETHYLCYCLOHEXYL 2-(4-(3,5-DIMETHYLPHENOXY)BUTYL)-2-METHYLPROPIONATE]: 0.0302 µM corresponded to half-maximal inhibition in assay [3] (IC50).
Regarding `CC(C)OC(=O)C(C)(C)Oc1ccc(C(=O)c2ccc(Cl)cc2)cc1` [Fenofibrate, isopropyl 4-(4-chlorobenzoyl)phenoxyisobutyrate, reference compound], the Mevalonate formed in assay [2] is on record as 4.16.
